# Experimental data published in ChEMBL document CHEMBL1151109, “Interference Competition Among Natural Fungal Competitors: an Antifungal Metabolite from the Coprophilous Fungus Preussia fleischhakii” (J Nat Prod, 1988).
# Key:
# Sordaria fimicola = test: Antifungal activity against Sordaria fimicola NRRL 6460 assessed as hyphal morphological changes; format: functional, organism-based
# Ascobolus = test: Antifungal activity against sAscobolus furfuraceus NRRL 6459 assessed as hyphal morphological changes; format: functional, organism-based
# [1] = Toxicity in brine shrimp; format: organism-based; details: artemia, in vivo
smiles,measurement,setting,value
COc1cc(C)c(Oc2cc(C)cc(O)c2)c(O)c1 [CYPERIN],IC50,Sordaria fimicola,50 µg/mL
same,MIC,Sordaria fimicola,75 µg/mL
same,IC50,Ascobolus,100 µg/mL
same,MIC,Ascobolus,250 µg/mL
same,LC50,[1],125 µg/mL
